The source of these data is patent US8841301B2, “Selective NR2B antagonists” (Bristol-Myers Squibb Company, priority 2011, dated 2014).

Read-outs that look alike come from different tables or passages of the source.

In general, IC50 refers to the concentration that inhibits the measured activity by half.

The assay addresses hNR2B (Homo sapiens, UniProt Q05586+Q13224). Put plainly: Electrophysiology NMDA receptor experiments: two electrode voltage-clamp in Xenopus laevis oocytes expressing GluN1/GluN2 subunits. Format: cell-based. The following applies: oocytes voltage clamped at −40 mV, 50 μM glutamate, 30 μM glycine. The procedure:
Electrophysiology NMDA Receptor Experiments.
Stage V and VI oocytes were surgically removed from the ovaries of large, well-fed and healthy Xenopus laevis anesthetized with 3-amino-benzoic acid ethyl ester (3 gm/l). Clusters of isolated oocytes were incubated with 292 U/ml Worthington (Freehold, N.J.) type IV collagenase or 1.3 mg/ml collagenase (Life Technologies, Gaithersburg, Md.; 17018-029) for 2 hr in Ca^2+-free solution comprised of (in mM) 115 NaCl, 2.5 KCl, and 10 HEPES, pH 7.5, with slow agitation to remove the follicular cell layer. Oocytes were then washed in the same solution supplemented with 1.8 mM CaCl2 and maintained in Barth's solution comprised of (in mM): 88 NaCl, 1 KCl, 2.4 NaHCO3, 10 HEPES, 0.82 MgSO4, 0.33 Ca(NO3)2, and 0.91 CaCl2 and supplemented with 100 μg/ml gentamycin, 10 μg/ml streptomycin, and 10 μg/ml penicillin. Oocytes were manually defolliculated and injected within 24 hrs of isolation with 3-5 ng of human GluN1 subunit cRNA and 7-10 ng of human GluN2 cRNA subunit in a 50 nl volume, and incubated in Barth's solution at 18° C. for 2-7 d. Glass injection pipettes had tip sizes ranging from 10-20 microns, and were backfilled with mineral oil. cRNA was synthesized from linearized template cDNA for rat glutamate receptor subunits according to manufacturer specifications (Ambion).
Two electrode voltage-clamp recordings were made 2-7 days post-injection. Oocytes were placed in a dual-track plexiglass recording chamber with a single perfusion line that splits in a Y-configuration to perfuse two oocytes. Dual recordings were made at room temperature (23° C.) using two Warner OC725B two-electrode voltage clamp amplifiers, arranged as recommended by the manufacturer. Glass microelectrodes (1-10 Megaohms) were filled with 300 mM KCl (voltage electrode) or 3 M KCl (current electrode). The bath clamps communicated across silver chloride wires placed into each side of the recording chamber, both of which were assumed to be at a reference potential of 0 mV. Oocytes were perfused with a solution comprised of (in mM) 90 NaCl, 1 KCl, 10 HEPES, […] and 0.5 BaCl2; pH 7.4, adjusted by addition of NaOH. Oocytes were recorded under voltage clamp at −40 mV. Final concentrations for glutamate and glycine were 50 μM and 30 μM, respectively. Concentration-response curves for experimental compounds were obtained by applying in successive fashion maximal glutamate/glycine, followed by glutamate/glycine plus variable concentrations of experimental compounds. Dose response curves consisting of four to eight concentrations were obtained in this manner. The baseline leak current at −40 mV was measured before and after recording, and the full recording linearly corrected for any change in leak current. The level of inhibition by applied experimental compounds was expressed as a percent of the initial glutamate response, and averaged together across oocytes from multiple experiments. Results were pooled, and the average percent responses at antagonist concentrations were fit by the equation, Percent Response=(100−minimum)/(1+([conc]/IC50)^nH)+minimum where minimum is the residual percent response in saturating concentration of the experimental compounds, IC50 is the concentration of antagonist that causes half of the achievable inhibition, and nH is a slope factor describing steepness of the inhibition curve. […]
For NMDA receptor subtype selectivity experiments human GluN1/GluN2A, GluN1/GluN2C, and GluN1/GluN2D cRNAs were expressed in Xenopus laevis as described above. Here, 10 μM concentrations of the antagonist was perfused with 50 μM glutamate and 30 μM glycine onto the oocyte for two min and the remaining current in the presence of the antagonist was compared to the maximal current obtained with 50 μM glutamate and 30 μM glycine alone (defined as 100%). When IC50 determinations were made against other NMDA receptor subtypes the protocol as described above was followed. […]

Chain of hNR2B (Q13224 27-1484, other chains not shown): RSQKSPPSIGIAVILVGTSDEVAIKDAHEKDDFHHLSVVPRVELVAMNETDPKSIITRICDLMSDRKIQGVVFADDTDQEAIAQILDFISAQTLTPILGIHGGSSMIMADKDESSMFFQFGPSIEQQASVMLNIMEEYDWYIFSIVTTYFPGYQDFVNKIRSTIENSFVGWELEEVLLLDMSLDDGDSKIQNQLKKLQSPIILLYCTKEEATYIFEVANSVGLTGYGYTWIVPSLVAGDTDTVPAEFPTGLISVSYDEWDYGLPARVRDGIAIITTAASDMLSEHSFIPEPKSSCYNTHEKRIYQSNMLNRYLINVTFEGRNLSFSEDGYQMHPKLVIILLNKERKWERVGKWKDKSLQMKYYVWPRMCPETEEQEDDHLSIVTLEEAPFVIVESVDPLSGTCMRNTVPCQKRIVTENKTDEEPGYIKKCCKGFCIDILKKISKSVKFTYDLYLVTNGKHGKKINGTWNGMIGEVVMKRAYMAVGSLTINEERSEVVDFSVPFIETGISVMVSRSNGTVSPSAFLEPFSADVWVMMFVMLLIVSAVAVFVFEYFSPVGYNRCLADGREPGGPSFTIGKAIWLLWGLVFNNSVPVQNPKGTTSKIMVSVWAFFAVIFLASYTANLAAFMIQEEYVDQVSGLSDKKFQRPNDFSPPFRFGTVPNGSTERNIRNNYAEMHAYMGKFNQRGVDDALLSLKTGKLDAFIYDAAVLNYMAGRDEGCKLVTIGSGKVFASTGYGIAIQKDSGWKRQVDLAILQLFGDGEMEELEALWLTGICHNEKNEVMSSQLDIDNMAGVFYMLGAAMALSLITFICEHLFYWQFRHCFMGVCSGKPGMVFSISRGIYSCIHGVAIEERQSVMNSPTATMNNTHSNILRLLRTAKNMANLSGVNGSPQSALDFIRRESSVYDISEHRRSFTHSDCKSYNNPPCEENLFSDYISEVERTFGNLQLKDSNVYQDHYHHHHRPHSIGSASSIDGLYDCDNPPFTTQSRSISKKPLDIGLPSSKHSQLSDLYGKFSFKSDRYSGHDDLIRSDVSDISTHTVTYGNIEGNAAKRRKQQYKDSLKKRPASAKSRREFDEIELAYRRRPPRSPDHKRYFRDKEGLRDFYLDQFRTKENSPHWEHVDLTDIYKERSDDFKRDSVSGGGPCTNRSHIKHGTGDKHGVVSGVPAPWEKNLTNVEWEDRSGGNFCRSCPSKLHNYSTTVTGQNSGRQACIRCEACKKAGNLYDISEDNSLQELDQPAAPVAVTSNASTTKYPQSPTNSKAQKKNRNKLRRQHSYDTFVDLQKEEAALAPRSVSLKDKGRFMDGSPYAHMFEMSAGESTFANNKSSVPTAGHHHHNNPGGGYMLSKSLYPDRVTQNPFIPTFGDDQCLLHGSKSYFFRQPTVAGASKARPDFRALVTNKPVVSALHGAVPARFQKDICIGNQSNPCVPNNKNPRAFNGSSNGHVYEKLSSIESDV

As to `O=c1ccc2cc(CCc3cnc(Nc4ccc(OC(F)(F)F)cc4)nc3)ccc2[nH]1` [Example 108], under “read-out: Rating (hNR2B IC50)”, the IC50 is less than 200 nM. For `O=c1ccc2cc(CCc3cnc(Nc4ccc(OC(F)F)cc4)nc3)ccc2[nH]1` [Example 109], for the setting “read-out: Rating (hNR2B IC50)”, the IC50 was less than 200 nM. The same measure, in the same setting: the figure for `O=c1ccc2cc(C3CC3c3cnc(Nc4ccc(OC(F)F)cc4)nc3)ccc2[nH]1` (stereo not shown) [Example 110] is less than 200 nM. For `FC(F)Oc1ccc(Nc2ncc(CCc3cccc4[nH]ncc34)cn2)cc1` [Example 111], the IC50 (read-out: Rating (hNR2B IC50)) was 1000 to 10000 nM.

Turning to `FC(F)Oc1ccc(Nc2ncc(CCc3ccc4[nH]ncc4c3)cn2)cc1` [Example 112], the IC50 (read-out: Rating (hNR2B IC50)) fell in the range of 201 to 1000 nM. Still for that read-out and setting: then `FC(F)Oc1ccc(Nc2ncc(CCc3ccc4cn[nH]c4c3)cn2)cc1` [Example 113], with greater than 10000 nM. Take `FC(F)Oc1ccc(Nc2ncc(CCCNc3ncccn3)cn2)cc1` [Example 114]: the IC50 (read-out: Rating (hNR2B IC50)) was greater than 10000 nM. Regarding `FC(F)Oc1ccc(Nc2ncc(CCCNc3ncnc4[nH]ncc34)cn2)cc1` [Example 115], the IC50 (read-out: Rating (hNR2B IC50)) was greater than 10000 nM. Same read-out and setting: the figure for `FC(F)Oc1ccc(Nc2ncc(C3CC3c3cccc4[nH]ncc34)cn2)cc1` (stereo not shown) [Example 117] is greater than 10000 nM. The same measure, in the same setting: the figure for `CC(Cc1cnc(Nc2ccc(OC(F)F)cc2)nc1)c1ccc2[nH]c(=O)ccc2c1` (stereo not shown) [Example 122] is less than 200 nM.

In the case of `N#Cc1n[nH]c2ccc(CCc3cnc(Nc4ccc(OC(F)F)cc4)nc3)cc12` [Example 124], the IC50 (read-out: Rating (hNR2B IC50)) was greater than 10000 nM. Consider `CCc1ccc(Nc2ncc(CCc3ccc4[nH]ncc4c3)cn2)cc1F` [Example 125], for which, where the note is “read-out: Rating (hNR2B IC50)”, the IC50 lay in the range of 1000 to 10000 nM. Turning to `CCc1ccc(Nc2ncc(CCc3ccc4[nH]c(=O)ccc4c3)cn2)cc1F` [Example 126], the IC50 (read-out: Rating (hNR2B IC50)) was less than 200 nM. The same measure, in the same setting: the figure for `CCc1ccc(Nc2ncc(CCc3ccc4[nH]ncc4c3)cn2)cc1` [Example 127] is 201 to 1000 nM. Consider `Fc1cc(Nc2ncc(CCc3ccc4[nH]ncc4c3)cn2)ccc1OC(F)F` [Example 128], for which the IC50 (read-out: Rating (hNR2B IC50)) was less than 200 nM.

Turning to `O=c1ccc2cc(CCc3cnc(Nc4ccc(OC(F)F)c(F)c4)nc3)ccc2[nH]1` [Example 129], the IC50 (read-out: Rating (hNR2B IC50)) is less than 200 nM.

Take `CCc1ccc(Nc2ncc(CCc3ccc4[nH]c(=O)ccc4c3)cn2)cc1` [Example 131]: the IC50 (read-out: Rating (hNR2B IC50)) is less than 200 nM. For `COc1ccc(Nc2ncc(CCc3ccc4[nH]c(=O)ccc4c3)cn2)cc1C` [Example 132], under “read-out: Rating (hNR2B IC50)”, the IC50 is less than 200 nM. Same read-out and setting: the figure for `FC1(F)Oc2ccc(Nc3ncc(CCc4ccc5[nH]ncc5c4)cn3)cc2O1` [Example 133] is 1000 to 10000 nM; for `CCc1ccc(Nc2ncc(CCc3ccc4[nH]ncc4c3)cn2)cc1Cl` [Example 134] it is 1000 to 10000 nM; for `CCc1ccc(Nc2ncc(CCc3ccc4[nH]c(=O)ccc4c3)cn2)cc1Cl` [Example 135] it is 1000 to 10000 nM.

For the molecule `CC1(C)OC(=O)Nc2ccc(CCc3cnc(Nc4ccc(OC(F)F)cc4)nc3)cc21` [Example 138], the IC50 (read-out: Rating (hNR2B IC50)) was greater than 10000 nM. In the case of `O=C1Nc2ccc(CCc3cnc(Nc4ccc(OC(F)F)cc4)nc3)cc2CO1` [Example 139], under “read-out: Rating (hNR2B IC50)”, the IC50 is less than 200 nM. `CC1(C)OC(=O)Nc2ccc(CCc3cnc(Nc4ccc(OC(F)F)c(Cl)c4)nc3)cc21` [Example 140]: where the note is “read-out: Rating (hNR2B IC50)”, the IC50 was 201 to 1000 nM. Still for that read-out and setting: the figure for `CCc1ccc(Nc2ncc(CCc3ccc4c(c3)C(C)(C)OC(=O)N4)cn2)cc1F` [Example 141] is 1000 to 10000 nM.

In the case of `Cc1ccc(Nc2ncc(CCc3ccc4c(c3)C(C)(C)OC(=O)N4)cn2)cc1F` [Example 142], the IC50 (read-out: Rating (hNR2B IC50)) lay in the range of 1000 to 10000 nM. Same read-out and setting: then `O=C1Nc2ccc(CCc3cnc(Nc4ccc(OC(F)F)c(Cl)c4)nc3)cc2CO1` [Example 143], with less than 200 nM; and `CCc1ccc(Nc2ncc(CCc3ccc4c(c3)COC(=O)N4)cn2)cc1F` [Example 144], with less than 200 nM; and `Cc1cc(Nc2ncc(CCc3ccc4c(c3)COC(=O)N4)cn2)ccc1OC(F)F` [Example 145], with less than 200 nM. Same read-out and setting: then `O=C1Nc2ccc(CCc3cnc(Nc4ccc(OC(F)F)c(F)c4)nc3)cc2CO1` [Example 146], with less than 200 nM. The same measure, in the same setting: then `Cc1cc(Nc2ncc(CCc3ccc4c(c3)C(C)(C)OC(=O)N4)cn2)ccc1OC(F)F` [Example 147], with 1000 to 10000 nM; and `CC1(C)OC(=O)Nc2ccc(CCc3cnc(Nc4ccc(OC(F)F)c(F)c4)nc3)cc21` [Example 148], with 1000 to 10000 nM. Regarding `Cc1ccc(Nc2ncc(CCc3ccc4c(c3)COC(=O)N4)cn2)cc1F` [Example 149], for the setting “read-out: Rating (hNR2B IC50)”, the IC50 was less than 200 nM. With `Oc1ccc(CCc2cnc(Nc3ccc(OC(F)F)cc3)nc2)cc1` [Example 150], the IC50 (read-out: Rating (hNR2B IC50)) was less than 200 nM. Still for that read-out and setting: the figure for `CCc1ccc(Nc2ncc(CCc3cnc4[nH]ncc4c3)cn2)cc1F` [Example 151] is 201 to 1000 nM; for `Fc1cc(Nc2ncc(CCc3cnc4[nH]ncc4c3)cn2)ccc1OC(F)F` [Example 152] it is less than 200 nM; for `Cc1cc(Nc2ncc(CCc3cnc4[nH]ncc4c3)cn2)ccc1OC(F)F` [Example 153] it is less than 200 nM. Turning to `FC(F)Oc1ccc(Nc2ncc(CCc3cnc4[nH]ncc4c3)cn2)cc1` [Example 154], for the setting “read-out: Rating (hNR2B IC50)”, the IC50 was less than 200 nM. As for `O=c1ccc2cc(CCc3cnc(Nc4ccc(OC(F)F)cc4)nc3)cnc2[nH]1` [Example 155], the IC50 (read-out: Rating (hNR2B IC50)) is less than 200 nM.

Regarding `FC(F)Oc1ccc(Nc2ccc(CCc3ccc4[nH]ncc4c3)nn2)cc1` [Example 156, 6-(2-(1H-indazol-5-yl)ethyl)-N-(4-(difluoromethoxy)phenyl)pyridazin-3-amine], the IC50 (read-out: hNR2B IC50) turned out to be 135 nM.
